# Data as given in publication PMC10487843, “Evaluation of Anticancer and Anti-Inflammatory Activities of Some Synthetic Rearranged Abietanes” (International Journal of Molecular Sciences, 2023).
# Read-outs that look alike come from different tables or passages of the source.
# How the values were obtained:
# [1] = tested on: NO release in LPS-stimulated RAW 264.7 macrophage cells; assay: Inhibition of nitric oxide production (Griess nitrite assay) in LPS-activated RAW 264.7 macrophages; assay type: cell-based, murine; details: LPS-stimulated RAW 264.7, 48 h; for NO inhibition: ¾ IC50 concentration; for IC50: Mus musculus, RAW264.7
# Experimental: To evaluate the anti-inflammatory activity of the rearranged abietanes (5, 7, 17, and 19) along with their precursor 13, we conducted experiments on RAW 264.7 macrophage cells, a well-known model for screening anti-inflammatory compounds. The macrophages were stimulated with LPS to induce the maximum release of nitric oxide (NO) during the inflammatory response. Subsequently, the different compounds were incubated with the cells at sub-cytotoxic concentrations for 48 h (Figure 9). Next, we determined the concentration of nitrites in the culture medium, which was proportional to the amount of NO release.
# Nitrite production was analyzed using the Griess reaction method. The concentration of nitrite was used as an indication of nitric oxide (NO) production. RAW 264.7 cells were seeded at 6 × 10^4 cells/well in 24-well cell culture plates, supplemented with 10 μg/mL of lipopolysaccharide (LPS). […] The Griess reaction was conducted by mixing 150 μL of supernatant test samples or sodium nitrite standard (0–120 μM) with 25 μL of Griess reagent A (0.1% n-(1-naphthyl) ethylenediamine dihydrochloride) and 25 μL of Griess reagent B (1% sulfanilamide in 5% of phosphoric acid) in a 96-well plate. The mixture was incubated at room temperature for 15 min, after which the absorbance was measured at 540 nm using an ELISA plate reader (Tecan Sunrise MR20–301, TECAN, Grödig, Austria). To determine the concentration of nitrite in each sample supernatant, the absorbance was referenced to the nitrite standard curve. To determine the percentage of NO production, the increase between the negative control (untreated cells) and the positive control (cells only with 10 μg/mL of LPS) was assigned 100%.
# [2] = RAW 264.7 cell viability (MTT); assay type: cell-based, murine; details: mouse
# Experimental: To evaluate the cytotoxic effects of the synthesized abietanes (5, 7, 13, 17, and 19) on RAW 264.7 monocyte/macrophage murine cells and to establish sub-cytotoxic concentrations for anti-inflammatory testing, we conducted cell viability assays using the MTT method. Each compound was tested at increasing concentration levels (0–100 μg/mL), and the IC50 values were determined by interpolation in the sigmoidal cytotoxicity curves (Figure 8). […] Additionally, sub-cytotoxic concentrations corresponding to ¾ IC50, ½ IC50, and ¼ IC50 were determined and selected for subsequent anti-inflammatory assays, ensuring that the observed effects were specifically attributed to the anti-inflammatory properties of the compounds rather than cytotoxicity. The human colorectal adenocarcinoma cell line HT29 (ECACC no. 9172201; ATCC no. HTB-38), the human hepatocarcinoma cell line HepG2 (ECACC no. 85011430), the mouse melanoma cells B16–F10 (ATCC no. CRL-6475), and the murine monocyte/macrophage like RAW 264.7 cell line (ATCC no, TIB-71) were obtained from the cell bank of the University of Granada, Spain. The tumor cell lines were cultured in DMEM (Dulbecco’s modified Eagle’s medium) supplemented with 2 mM glutamine, 10% heat-inactivated FCS (fetal calf serum), and 50 μg/mL of gentamicin (for all cancer cell lines). The RAW 264.7 cell line was cultured in RPMI1640 medium, supplemented with 2 mM glutamine, 10% heat-inactivated FCS, and 50 μg/mL of gentamicin. All cell lines were incubated at 37 °C, in an atmosphere of 5% CO2 and 95% humidity. The culture media were changed every 48 h, and the confluent cultures were separated with a trypsin solution (0.25% EDTA). In all experiments, monolayer cells were grown to 80–90% confluence in sterile cell culture flasks. The effects of the compounds on the cell viability were established using the MTT method (Sigma, St. Louis, MO, USA). The cytotoxicity of the compounds was assessed by measuring the absorbance of MTT dye staining of metabolically competent cells. The cells were cultivated in 96-well plates at 6.0 × 10^3 cells/mL for the HT29 and RAW 264.7 cell lines, at 5.0 × 10^3 cells/mL for B16–F10 cells, and 15.0 × 10^3 cells/mL for the HepG2 cell line, with a final volume of 200 μL per well being incubated with the different products (0–100 μg/mL). After 72 h, 100 μL of MTT solution (0.5 mg/mL) in 50% of PBS and 50% of the medium was added to each well. Following incubation for 1.5 h, formazan was resuspended in 100 μL of DMSO, and each concentration was tested in triplicate. The cell viability relative to the untreated control cells was determined by measuring the absorbance at 570 nm using an ELISA plate reader (Tecan Sunrise MR20–301, TECAN, Grödig, Austria).
# [3] = tested on: human hepatocarcinoma (HepG2); assay: MTT cell viability assay, HepG2; assay type: cell-based; details: Homo sapiens; for IC80: 72 h, 80% growth inhibition; for IC50: HepG2, 72 h, read-out: IC50
# Text: (§1) In this study, we employed the MTT (3-(4,5-dimethyl thiazol-2-yl)-2,5-diphenyltetrazolium bromide) colorimetric assay to evaluate the cytotoxic activity of selected abietanes (compounds 5, 7, 13, 17, and 19) against three tumor cell lines: human colon adenocarcinoma (HT29), human hepatocarcinoma (HepG2), and murine melanoma (B16–F10). The MTT assay relied on the conversion of MTT to formazan by viable cells, with the formazan concentration proportional to the number of viable cells. The concentrations required for 50 and 80% growth inhibition (IC50 and IC80) were determined for each compound.
# (§2) The human colorectal adenocarcinoma cell line HT29 (ECACC no. 9172201; ATCC no. HTB-38), the human hepatocarcinoma cell line HepG2 (ECACC no. 85011430), the mouse melanoma cells B16–F10 (ATCC no. CRL-6475), and the murine monocyte/macrophage like RAW 264.7 cell line (ATCC no, TIB-71) were obtained from the cell bank of the University of Granada, Spain. The tumor cell lines were cultured in DMEM (Dulbecco’s modified Eagle’s medium) supplemented with 2 mM glutamine, 10% heat-inactivated FCS (fetal calf serum), and 50 μg/mL of gentamicin (for all cancer cell lines). The RAW 264.7 cell line was cultured in RPMI1640 medium, supplemented with 2 mM glutamine, 10% heat-inactivated FCS, and 50 μg/mL of gentamicin. All cell lines were incubated at 37 °C, in an atmosphere of 5% CO2 and 95% humidity. The culture media were changed every 48 h, and the confluent cultures were separated with a trypsin solution (0.25% EDTA). In all experiments, monolayer cells were grown to 80–90% confluence in sterile cell culture flasks.
# (§3) The effects of the compounds on the cell viability were established using the MTT method (Sigma, St. Louis, MO, USA). The cytotoxicity of the compounds was assessed by measuring the absorbance of MTT dye staining of metabolically competent cells. The cells were cultivated in 96-well plates at 6.0 × 10^3 cells/mL for the HT29 and RAW 264.7 cell lines, at 5.0 × 10^3 cells/mL for B16–F10 cells, and 15.0 × 10^3 cells/mL for the HepG2 cell line, with a final volume of 200 μL per well being incubated with the different products (0–100 μg/mL). After 72 h, 100 μL of MTT solution (0.5 mg/mL) in 50% of PBS and 50% of the medium was added to each well. Following incubation for 1.5 h, formazan was resuspended in 100 μL of DMSO, and each concentration was tested in triplicate. The cell viability relative to the untreated control cells was determined by measuring the absorbance at 570 nm using an ELISA plate reader (Tecan Sunrise MR20–301, TECAN, Grödig, Austria).
# [4] = tested on: human colon adenocarcinoma (HT29); assay: MTT cell viability assay, HT29; assay type: cell-based; details: Homo sapiens, HT-29, 72 h; for IC80: 80% growth inhibition; for IC50: read-out: IC50
# Text: as §1, §2, §3
# [5] = tested on: murine melanoma (B16–F10); assay: MTT cell viability assay, B16-F10; assay type: cell-based; details: Mus musculus, 72 h; for IC80: 80% growth inhibition
# Text: as §1, §2, §3
# P388 leukemia cells = tested on: P388 leukemia cells; set-up: method as in doi:10.1076/phbi.37.2.148.6082; details: cited from earlier work
# human carcinoma KB cells = tested on: human carcinoma KB cells; set-up: method as in doi:10.1076/phbi.37.1.17.6321; details: cited from earlier work
# [6] = tested on: promyelocytic HL-60 cells; set-up: method as in PMID 16989306; details: cited from earlier work
# [7] = tested on: human leukemia lymphoblastic NALM-6; set-up: method as in PMID 16989306; details: cited from earlier work
# [8] = set-up: method as in PMID 29772301; details: orthoquinones versus para-quinones; cell lines not given; read-out: cytotoxic activity; cited from earlier work
# [9] = RAW 264.7 monocyte/macrophage cells, RAW 264.7, MTT, 0–100 μg/mL, read-out: IC50 (cytotoxicity)
IC50 [3],IC50 [4],IC50 [5],Molecule,NO inhibition [1],IC50 [1],IC50 at 72 h [2],IC80 [3],IC80 [4],IC80 [5],"IC50 at 72 h [2, 9]",cytotoxicity (P388 leukemia cells),cytotoxic effect (human carcinoma KB cells),IC50 [6],IC50 [7],IC50 [8]
21.2 ± 2.26 µg/mL,7.82 ± 0.17 µg/mL,6.89 ± 0.37 µg/mL,"CC(C)=CCCc1c(C)ccc2c1C(=O)C(=O)C(C(C)C)=C2 [Compound 7, saprorthoquinone]",100%,1.3 ± 0.08 µg/mL,,29.12 ± 0.21 µg/mL,10.6 ± 0.28 µg/mL,8.02 ± 0.52 µg/mL,2.81 ± 0.45 µg/mL,strong cytotoxicity,,,,
,,,C=C(C)CCCc1c(C)ccc2c1C(=O)C(=O)C(C(C)C)=C2 [aethiopinone],,,,,,,,,potent cytotoxic effect,4.8 µg/mL,0.6 µg/mL,
,,,tebesinone B,,,,,,,,,,,,5.47 to 10.3 µM
,,,aegyptinone A,,,,,,,,,,,,2.11 to 8.19 µM
76.3 ± 2.14 µg/mL,60.52 ± 0.28 µg/mL,6.42 ± 0.35 µg/mL,"CC(C)C1=CC2=C(C(=O)C1=O)C1=CCCC(C)(C)[C@@]1(C)C=C2 [Compound 19, viridoquinone]",100%,7.21 ± 0.9 µg/mL,,101 ± 3.47 µg/mL,74.7 ± 1.53 µg/mL,9.14 ± 0.38 µg/mL,9.29 ± 0.35 µg/mL,,,,,

Molecule,IC50 [3],IC50 [4],IC50 [5],NO inhibition [1],IC50 [1],IC50 at 72 h [2],IC80 [3],IC80 [4],IC80 [5],"IC50 at 72 h [2, 9]",cytotoxicity (P388 leukemia cells),cytotoxic effect (human carcinoma KB cells),IC50 [6],IC50 [7],IC50 [8]
"CC(C)c1cc2c(c(O)c1O)C1=CC(=O)CC(C)(C)[C@@]1(C)C=C2 [Compound 17, pygmaeocin C]",38.8 ± 1.55 µg/mL,15.3 ± 0.71 µg/mL,10.1 ± 1.81 µg/mL,91%,1.73 ± 0.04 µg/mL,6.27 ± 0.94 µg/mL,73.5 ± 2.06 µg/mL,24.4 ± 2.65 µg/mL,26.6 ± 4.82 µg/mL,,,,,,
